Test results reported in publication PMC3608462 (Biochemistry, 2011).
Residues, ends and D or L forms follow the SMILES beside them.

Columns and labels:
CPAF = CPAF (Chlamydia trachomatis serovar D, UniProt O84866); format: biochemical
[1] = test system: C. trachomatis LGV-L2 434-infected HeLa cells; settings: C. trachomatis LGV-L2 434-infected HeLa cells treated with lactacystin; cited from earlier work

Sequence of CPAF (O84866 276-601): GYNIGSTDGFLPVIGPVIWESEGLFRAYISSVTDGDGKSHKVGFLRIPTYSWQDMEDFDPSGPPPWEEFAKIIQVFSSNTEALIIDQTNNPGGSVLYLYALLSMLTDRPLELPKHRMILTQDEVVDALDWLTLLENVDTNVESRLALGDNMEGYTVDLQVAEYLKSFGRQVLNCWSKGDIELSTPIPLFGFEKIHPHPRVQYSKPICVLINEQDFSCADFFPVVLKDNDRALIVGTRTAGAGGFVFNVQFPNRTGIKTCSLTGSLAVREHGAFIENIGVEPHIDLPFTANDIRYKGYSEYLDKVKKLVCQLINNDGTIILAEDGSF
Sequence of CPAF (O84866 1-234): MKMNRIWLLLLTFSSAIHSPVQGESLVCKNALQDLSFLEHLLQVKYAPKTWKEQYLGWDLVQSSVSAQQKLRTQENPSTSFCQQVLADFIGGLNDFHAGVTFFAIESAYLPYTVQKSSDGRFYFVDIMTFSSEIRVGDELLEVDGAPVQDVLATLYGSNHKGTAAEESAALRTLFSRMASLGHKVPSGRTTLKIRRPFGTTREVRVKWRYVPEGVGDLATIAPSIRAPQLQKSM

CSCC[C@H](NC(=O)[C@@H]1CCCN1C(=O)[C@H](CO)NC(=O)[C@H](Cc1ccc(O)cc1)NC(=O)[C@H](Cc1ccccc1)NC(=O)[C@H](CC(C)C)NC(=O)[C@@H](N)CO)C(=O)N[C@H](C(=O)N1CCC[C@H]1C(=O)N[C@@H](Cc1c[nH]cn1)C(=O)N[C@@H](Cc1ccccc1)C(=O)N[C@@H](Cc1c[nH]c2ccccc12)C(=O)N[C@@H](C)C(=O)N[C@@H](CCC(=O)O)C(=O)N[C@@H](CC(C)C)C(=O)N[C@@H](CCCNC(=N)N)C(=O)N[C@@H](CC(N)=O)C(=O)N[C@@H](Cc1c[nH]cn1)C(=O)N[C@@H](Cc1ccc(O)cc1)C(=O)N[C@@H](C)C(=O)N[C@H](C(=O)N[C@@H](CO)C(=O)NCC(=O)N[C@@H](CC(C)C)C(=O)N[C@@H](CCCCN)C(N)=O)[C@@H](C)O)C(C)C [peptide 3] (H-SLFYSPMVPHFWAELRNHYATSGLK-NH2)
potency relative to lactacystin (fold more potent) (CPAF; ratio of CPAF IC50 values): 6 fold

CSCC[C@H](NC(=O)[C@@H]1CCCN1C(=O)[C@H](CO)NC(=O)[C@H](Cc1ccc(O)cc1)NC(=O)[C@H](Cc1ccccc1)NC(=O)[C@H](CC(C)C)NC(=O)[C@@H](N)CO)C(=O)N[C@H](C(=O)N1CCC[C@H]1C(=O)N[C@@H](Cc1c[nH]cn1)C(=O)N[C@@H](Cc1ccccc1)C(=O)N[C@@H](Cc1c[nH]c2ccccc12)C(=O)N[C@@H](C)C(=O)N[C@@H](CCC(=O)O)C(=O)N[C@@H](CC(C)C)C(=O)N[C@@H](CCCNC(=N)N)C(=O)N[C@@H](CC(N)=O)C(=O)N[C@@H](Cc1c[nH]cn1)C(=O)N[C@@H](Cc1ccc(O)cc1)C(=O)N[C@@H](C)C(=O)N[C@H](C(=O)N[C@@H](CO)C(=O)NCC(=O)N[C@@H](CC(C)C)C(=O)N[C@@H](CCCCN)C(=O)N[C@@H](CCCNC(=N)N)C(=O)N[C@@H](CCCNC(=N)N)C(=O)N[C@@H](CCCNC(=N)N)C(=O)N[C@@H](CCCNC(=N)N)C(=O)N[C@@H](CCCNC(=N)N)C(=O)N[C@@H](CCCNC(=N)N)C(=O)N[C@@H](CCCNC(=N)N)C(=O)N[C@@H](CCCNC(=N)N)C(=O)N[C@@H](CCCNC(=N)N)C(N)=O)[C@@H](C)O)C(C)C [peptide 4] (H-SLFYSPMVPHFWAELRNHYATSGLKRRRRRRRRR-NH2)
potency relative to inhibitor 3 (fold better) (CPAF; ratio of CPAF IC50 values): ~30 fold | potency relative to lactacystin (fold more potent) (CPAF; ratio of CPAF IC50 values): ~200 fold

CC(=O)N[C@@H](CSC(=O)[C@]1([C@@H](O)C(C)C)NC(=O)[C@H](C)[C@@H]1O)C(=O)O [lactacystin]
effect on vimentin in infected HeLa cells [1]: fiber oligermerization of vimentin

H-NFALSHFRLPLSTYKEMPYVSHWAGRRRRRRRRR-NH2 [peptide 5]
CPAF inhibitory activity in vitro (CPAF; in vitro): no CPAF inhibitory activity
